According to US8383785B2, “Anti-bacterial activity of 9-hydroxy derivatives of 6,11-bicyclolides” (Enanta Pharmaceuticals, Inc., priority 2008, dated 2013):

How the values were obtained:
[1] = test system: H. influenzae strain 33929; test: MIC by micro-dilution method, H. influenzae strain 33929; type: cell-based, Haemophilus influenzae; settings: compounds of the invention (scaffold drawing 61, 9-hydroxy); 24 hours, 35+/-2° C.
Protocol: (§1) Susceptibility tests can be used to quantitatively measure the in vitro activity of an antimicrobial agent against a given bacterial isolate. Compounds are tested for in vitro antibacterial activity by a micro-dilution method. Minimal Inhibitory Concentration (MIC) is determined in 96 well microtiter plates utilizing the appropriate broth medium for the observed bacterial isolates. Antimicrobial agents are serially diluted (2-fold) in DMSO to produce a concentration range from about 64 μg/ml to about 0.03 μg/ml. The diluted compounds (2 μl/well) are then transferred into sterile, uninoculated medium (0.2 mL) by use of a 96 fixed tip-pipetting station. The inoculum for each bacterial strain is standardized to approximately 5×10^5 CFU/mL by optical comparison to a 0.5 McFarland turbidity standard. The plates are inoculated with 10 μl/well of adjusted bacterial inoculum. The 96 well plates are covered and incubated at 35+/−2° C. for 24 hours in ambient air environment. Following incubation, plate wells are visually examined by Optical Density measurement for the presence of growth (turbidity). The lowest concentration of an antimicrobial agent at which no visible growth occurs is defined as the MIC.
(§2) All in vitro testing follows the guidelines described in the Approved Standards M7-A7 protocol, published by the Clinical Laboratory Standards Institute (CLSI).
(§3) Table II below provides MIC data for compounds of the invention and related species from U.S. Pat. No. 6,878,691 and US Published Application No. 2009/0118506, each of which is incorporated herein by reference. The values in the table are minimum inhibition concentration (MIC) and are expressed as ug/mL.

[2] = test system: H. influenzae strain 49247; test: MIC by micro-dilution method, H. influenzae strain 49247; type: cell-based, Haemophilus influenzae; settings: compounds of the invention (scaffold drawing 61, 9-hydroxy); 24 hours, 35+/-2° C.
Protocol: as §1, §2, §3

Row | Structure (SMILES) | H. influenzae MIC strain 33929 [1] | H. influenzae MIC strain 49247 [2]
1 | CCC1OC(=O)C(C)(F)C(=O)C(C)C(OC2OC(C)CC(N(C)C)C2O)C2(C)CC(C)C(O)C(C)C(OCC(=NOCc3ccc(-c4ccno4)nc3)CO2)C1(C)O (mixture of isomers) [Compound 13] | 2 mg/L | 1 mg/L
2 | CCC1OC(=O)C(C)(F)C(=O)C(C)C(OC2OC(C)CC(N(C)C)C2O)C2(C)CC(C)C(O)C(C)C(OCC(=NOCc3coc(-c4cccc(N)n4)n3)CO2)C1(C)O (mixture of isomers) [Compound 14] | 2 mg/L | 1 mg/L
3 | CCC1OC(=O)C(C)(F)C(=O)C(C)C(OC2OC(C)CC(N(C)C)C2O)C2(C)CC(C)C(O)C(C)C(OCC(=NOCc3ccc(-c4nccs4)cn3)CO2)C1(C)O (mixture of isomers) [Compound 16] | 2 mg/L | –
4 | CCC1OC(=O)C(C)(F)C(=O)C(C)C(OC2OC(C)CC(N(C)C)C2O)C2(C)CC(C)C(O)C(C)C(OCC(=NOCc3ccc(-c4nc(N)cs4)nc3)CO2)C1(C)O (mixture of isomers) [Compound 18] | 2 mg/L | 1 mg/L
5 | CC[C@H]1OC(=O)[C@H](C)C(=O)[C@H](C)[C@@H](O[C@@H]2O[C@H](C)C[C@H](N(C)C)[C@H]2O)[C@@]2(C)C[C@@H](C)[C@H](O)[C@H](C)C(OCC(=NOCc3ccc(-c4nc(N)cs4)cn3)CO2)[C@]1(C)O [Compound 3] | 4 mg/L | 2 mg/L
6 | CC[C@H]1OC(=O)[C@H](C)C(=O)[C@H](C)[C@@H](O[C@@H]2O[C@H](C)C[C@H](N(C)C)[C@H]2O)[C@@]2(C)C[C@@H](C)[C@H](O)[C@H](C)C(OCC(=NOCc3csc(-c4cccc(N)n4)n3)CO2)[C@]1(C)O [Compound 9] | 1 mg/L | 1 mg/L
7 | CC[C@H]1OC(=O)[C@@](C)(F)C(=O)[C@H](C)[C@@H](O[C@@H]2O[C@H](C)C[C@H](N(C)C)[C@H]2O)[C@@]2(C)C[C@@H](C)[C@H](O)[C@H](C)C(OCC(=NOCc3cnc(-c4cccc(N)n4)s3)CO2)[C@]1(C)O [Compound 12] | 2 mg/L | 1 mg/L

Second part, the compound after the results:

Row | H. influenzae MIC strain 33929 [1] | H. influenzae MIC strain 49247 [2] | Structure (SMILES)
8 | 4 mg/L | 4 mg/L | CCC1OC(=O)C(C)(F)C(=O)C(C)C(OC2OC(C)CC(N(C)C)C2O)C2(C)CC(C)C(O)C(C)C(OCC(=NOCc3ccc(-c4nc(N)cs4)cc3)CO2)C1(C)O (mixture of isomers) [Compound 15]
9 | 1 mg/L | 1 mg/L | CCC1OC(=O)C(C)(F)C(=O)C(C)C(OC2OC(C)CC(N(C)C)C2O)C2(C)CC(C)C(O)C(C)C(OCC(=NOCc3csc(-c4cccc(N)n4)n3)CO2)C1(C)O (mixture of isomers) [Compound 17]
10 | 1 mg/L | 1 mg/L | CC[C@H]1OC(=O)[C@H](C)C(=O)[C@H](C)[C@@H](O[C@@H]2O[C@H](C)C[C@H](N(C)C)[C@H]2O)[C@@]2(C)C[C@@H](C)[C@H](O)[C@H](C)C(OCC(=NOCc3ccc(-c4nc(N)ns4)cn3)CO2)[C@]1(C)O [Compound 2]
11 | 1 mg/L | 1 mg/L | CC[C@H]1OC(=O)[C@H](C)C(=O)[C@H](C)[C@@H](O[C@@H]2O[C@H](C)C[C@H](N(C)C)[C@H]2O)[C@@]2(C)C[C@@H](C)[C@H](O)[C@H](C)C(OCC(=NOCc3ccc(-c4ccno4)nc3)CO2)[C@]1(C)O [Compound 4]
12 | 2 mg/L | 2 mg/L | CC[C@H]1OC(=O)[C@H](C)C(=O)[C@H](C)[C@@H](O[C@@H]2O[C@H](C)C[C@H](N(C)C)[C@H]2O)[C@@]2(C)C[C@@H](C)[C@H](O)[C@H](C)C(OCC(=NOCc3ccc(-n4ccc(N)n4)cn3)CO2)[C@]1(C)O [Compound 5]
13 | 1 mg/L | 1 mg/L | CC[C@H]1OC(=O)[C@H](C)C(=O)[C@H](C)[C@@H](O[C@@H]2O[C@H](C)C[C@H](N(C)C)[C@H]2O)[C@@]2(C)C[C@@H](C)[C@H](O)[C@H](C)C(OCC(=NOCc3cccc(-c4cccc(N)n4)n3)CO2)[C@]1(C)O [Compound 6]
14 | 1 mg/L | 1 mg/L | CC[C@H]1OC(=O)[C@H](C)C(=O)[C@H](C)[C@@H](O[C@@H]2O[C@H](C)C[C@H](N(C)C)[C@H]2O)[C@@]2(C)C[C@@H](C)[C@H](O)[C@H](C)C(OCC(=NOCc3ccc(-n4ccc(N)n4)nc3)CO2)[C@]1(C)O [Compound 7]
15 | 2 mg/L | 1 mg/L | CC[C@H]1OC(=O)[C@H](C)C(=O)[C@H](C)[C@@H](O[C@@H]2O[C@H](C)C[C@H](N(C)C)[C@H]2O)[C@@]2(C)C[C@@H](C)[C@H](O)[C@H](C)C(OCC(=NOCc3ncc(-c4cccc(N)n4)s3)CO2)[C@]1(C)O [Compound 8]
16 | 4 mg/L | 1 mg/L | CC[C@H]1OC(=O)[C@@](C)(F)C(=O)[C@H](C)[C@@H](O[C@@H]2O[C@H](C)C[C@H](N(C)C)[C@H]2O)[C@@]2(C)C[C@@H](C)[C@H](O)[C@H](C)C(OCC(=NOCc3ccc(-c4nc(N)cs4)cn3)CO2)[C@]1(C)O [Compound 10]
17 | 1 mg/L | 1 mg/L | CC[C@H]1OC(=O)[C@@](C)(F)C(=O)[C@H](C)[C@@H](O[C@@H]2O[C@H](C)C[C@H](N(C)C)[C@H]2O)[C@@]2(C)C[C@@H](C)[C@H](O)[C@H](C)C(OCC(=NOCc3ncc(-c4cccc(N)n4)s3)CO2)[C@]1(C)O [Compound 11]
